{
  "source": "ChEMBL document CHEMBL5096191",
  "about": "(J Med Chem, 2021)",
  "type_in_all_cases": "functional, cell-based",
  "key": {"Cannabinoid receptor 2 [1]": {"molecular_target": "T1, Cannabinoid receptor 2 (Homo sapiens, UniProt P34972, V113M)", "T1 sequence (P34972 whole entry V113M)": "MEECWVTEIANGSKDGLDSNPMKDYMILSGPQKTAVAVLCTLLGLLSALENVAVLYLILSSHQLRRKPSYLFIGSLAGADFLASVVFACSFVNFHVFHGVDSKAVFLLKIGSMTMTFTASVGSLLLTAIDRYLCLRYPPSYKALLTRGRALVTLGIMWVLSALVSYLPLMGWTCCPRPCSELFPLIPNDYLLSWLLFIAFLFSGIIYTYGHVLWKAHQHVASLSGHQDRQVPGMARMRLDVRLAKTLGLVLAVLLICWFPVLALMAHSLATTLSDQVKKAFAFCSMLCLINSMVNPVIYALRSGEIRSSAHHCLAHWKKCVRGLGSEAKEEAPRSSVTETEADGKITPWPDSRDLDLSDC", "assay": "Partial agonist activity at CBR2 V1133.32M mutant (unknown origin) stably expressed in HEK293T assessed as decrease in forskolin induced cAMP level preincubated for 15 mins followed by forskolin addition incubated for 15 mins in presence of cannabidiol by HTRF assay"}, "Cannabinoid receptor 2 [2]": {"molecular_target": "T2, Cannabinoid receptor 2 (Homo sapiens, UniProt P34972)", "T2 sequence (P34972 whole entry)": "as the sequence (P34972 whole entry V113M) above, with M113V counted along it", "assay": "Positive allosteric modulation of JWH-133-induced agonist activity at wild type CB2 receptor (unknown origin) stably expressed in HEK293T cells assessed as inhibition of forskolin-stimulated cAMP levels preincubated for 15 mins followed by forskolin addition incubated for 15 mins by HTRF assay"}, "[3]": {"test_system": "Cannabinoid receptor 2 (Homo sapiens), P34972 [S285L]", "sequence (P34972 whole entry S285L)": "as the sequence (P34972 whole entry V113M) above, with M113V, S285L counted along it", "assay": "Partial agonist activity at CBR2 S2857.39L mutant (unknown origin) stably expressed in HEK293T assessed as decrease in forskolin induced cAMP level preincubated for 15 mins followed by forskolin addition incubated for 15 mins by HTRF assay relative to control", "conditions": "filed as partial agonist, time 30.0 min"}, "Cannabinoid receptor 2 [4]": {"molecular_target": "T1, Cannabinoid receptor 2", "assay": "Partial agonist activity at CBR2 V1133.32M mutant (unknown origin) expressed in HEK293T assessed as increase in picometer shifts of reflected light wavelengths in presence of cannabidiol by DMR assay"}, "Cannabinoid receptor 2 [5]": {"molecular_target": "T2, Cannabinoid receptor 2", "assay": "Partial agonist activity at wild type CB2 receptor (unknown origin) expressed in HEK293T assessed as increase in ERK1/2 phosphorylation incubated for 7 mins in presence of cannabidiol by AlphaScreenSureFire method relative to control", "conditions": "filed as partial agonist"}},
  "data": [
    {"compound": "CCCC(C)(C)c1cc(O)c2c(c1)OC(C)(C)[C@@H]1CC=C(C)C[C@@H]21", "values": [
      {"measurement": "EC50", "setting": "Cannabinoid receptor 2 [1]", "value": 25.1, "unit": "nM"},
      {"measurement": "EC50", "setting": "Cannabinoid receptor 2 [2]", "value": 25.1, "unit": "nM"},
      {"measurement": "Emax", "setting": "[3]", "value": 49.3, "unit": "%"},
      {"measurement": "EC50", "setting": "Cannabinoid receptor 2 [4]", "value": 398, "unit": "nM"},
      {"measurement": "Emax", "setting": "Cannabinoid receptor 2 [5]", "value": 250, "unit": "%"}
    ]}
  ]
}
